The test system of the test is 922993-354-T-J3-PDC complex spheroids, viability, % test/control. The test is described as follows: Anticancer human tumor 922993-354-T-J3-PDC patient-derived endometrial carcinoma cell line growth inhibition [CLK]. The note with it: for viability, T/C: stronger effect = lower value. The text has this:
A high-throughput screen of multi-cell type tumor spheroids was designed to identify active combinations of […] and targeted small molecules. Complex spheroids include a stromal component modeled by human endothelial cells (HUVEC) and fibroblasts modeled by human mesenchymal stem cells (MSCs). The concentration ranges selected for each drug and investigational agent were based upon clinically achievable concentrations if the clinical Cmax of the agent was known.
Compounds. The drugs and investigational agents: cirtuvivint (SM08502; NSC835563), CC-671 (NSC850746), vemurafenib (NSC761431), tapotoclax (NSC804041), sotorasib (NSC818433), adagrasib (NSC831453), MRTX-1133 (NSC836407), BAY2416964 (NSC825713), copanlisib (NSC816437), inavolisib (NSC800729), abemaciclib (NSC768073), osimertinib (NSC779217), entinostat (NSC756642), eltanexor (KPT-8602, NSC794443), venetoclax (NSC766270), ceralasertib (NSC777638), bortezomib (NSC756655), olaparib (NSC753686), talazoparib (NSC767125), alisertib (NSC759677), peposertib (NSC802822), gemcitabine (NSC613327), 5-fluorouracil (NSC19893), SN-38 (NSC673596), oxaliplatin (NSC266046), paclitaxel (NSC125973), and doxorubicin (NSC123127), were obtained from the National Cancer Institute (NCI) Developmental Therapeutics Program Chemical Repository. The FDA-approved anticancer drug set is available from the Developmental Therapeutics Program at https://dtp.cancer.gov/organization/dscb/obtaining/available plates.htm. […] The stock solutions were prepared in dimethyl sulfoxide (DMSO, Sigma-Aldrich, St. Louis, MO, cat. D2650), except for the platinum complexes which were prepared in saline (Quality Biological, Gaithersburg, MD, cat. 114-055-101), at 800-fold the tested concentration and stored at -70 degrees C prior to their use. All drugs and investigational agents were tested over a range starting from a high concentration at or near the clinical Cmax and decreasing in half-log increments. If the clinical Cmax for an agent had not been determined, the highest concentration tested was 10 microM.
Cell Culture. All cells were maintained in an incubator at 37 degrees C and 5% CO2 with 95% humidity. The PDC lines were cultured according to standard operating procedures established by the NCI PDMR. Briefly, all PDCs were thawed and cultured in Matrigel-coated flasks prepared with a working solution of 1X Ham's F-12 nutrient mix, without supplementation (Invitrogen, Waltham, MA, cat. 11765054), 100 U/mL penicillin-streptomycin (Invitrogen, cat. 15140122), and 2.5% Matrigel (Corning Inc., Corning, NY, cat. 354248) for the first three passages. The 947758-054-R-J2-PDC line was cultured in 6B/Colon 1A media, which includes advanced DMEM/F-12 (Thermo Fisher Scientific, cat. 12634028), 10 mM HEPES (Thermo Fisher Scientific, cat. 15630080), 1X GlutaMAX supplement (Thermo Fisher Scientific, cat. 35050061), 0.1 mg/mL primocin (InvivoGen, cat. ant-pm-2), 10% defined fetal bovine serum, heat inactivated (HyClone Laboratories Inc., cat. SH30070.03HI), 1.25 mM N-Acetyl-L-cysteine (Sigma-Aldrich, cat. A9165), 10 mM nicotinamide (Sigma-Aldrich, cat. N0636), 1X B-27 supplement (Thermo Fisher Scientific, cat. 17504044), 1X N-2 supplement (Thermo Fisher Scientific, cat. 17502048), and 10 microM Y-27632 dihydrochloride (Tocris Bioscience, cat. 1254). The 876862-298-R-J1-PDC was cultured in 6E media, which includes all 6B/Colon 1A media components plus 50% L-WRN conditioned media (ATCC, cat. CRL-3276), 50 ng/mL recombinant human EGF recombinant protein (hEGF; Thermo Fisher Scientific, cat. PHG0311), 10 ng/mL recombinant human fibroblast growth factor 10 (hGFG-10; PeproTech, cat. 100-26), 1 ng/mL recombinant human fibroblast growth factor 2 (hFGF-2; PeproTech, cat. 100-18B), and 1 µM prostaglandin E2 (PGE2; Tocris, cat. 2296). The 227483-062-R1-J1-PDC line was cultured in Panc media, containing all 6E components except hFGF-2, with the addition of 500 nM SB-431542 (Selleckchem, cat. S1067) and 10 nM gastrin (Tocris, cat. 3006). […]

Several values for one entry are separate records, joined by “and”; a condition that tells them apart may be missing. Equal entries are not always repeated.
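Also: spheroids exposed to the agents for 7 days before readout.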

In the case of `CC(=O)O[C@H]1C(=O)[C@@]2(C)[C@H]([C@H](OC(=O)c3ccccc3)[C@]3(O)C[C@H](OC(=O)[C@H](O)[C@@H](NC(=O)c4ccccc4)c4ccccc4)C(C)=C1C3(C)C)[C@]1(OC(C)=O)CO[C@@H]1C[C@@H]2O`, the viability, T/C – broadly, the ratio of treated to control – is 105% and 92.5% (compound 0.0316 µM); 79% and 115% (compound 0.1 µM); 84% and 85.9% (compound 0.316 µM); 95.6% and 88.3% (compound 1 µM); 52.7% and 71.6% (compound 3.16 µM); 37.1% and 40.2% (compound 10 µM). For the same compound, for the setting “curve of compound”, the 50% inhibitory concentration (IC50) (as a rule, the midpoint of a concentration-inhibition curve) was 3.86 µM and 6.98 µM.

`CC1COCCN1c1cc(C2(S(C)(=N)=O)CC2)nc(-c2ccnc3[nH]ccc23)n1` (centres undefined): the viability, T/C is 101% and 91.8% (compound 0.0316 µM); 118% and 86.8% (compound 0.1 µM); 130% and 91.7% (compound 0.316 µM); 90.4% and 102% (compound 1 µM); 108% and 94.2% (compound 3.16 µM); 68.6% and 78.2% (compound 10 µM). Also, for the setting “curve of compound”, the IC50 is more than 10 µM.

Consider `CN1CCN(c2cc(C(=O)Nc3cc4cc(-c5cnn(C)c5)ccc4cn3)ccn2)CC1`, for which the viability, T/C (compound 0.1 µM) is 97.6% [middle of 12 runs]; the viability, T/C (compound 1 µM) was 1.97% [middle of 12 runs]; the viability, T/C (compound 3.16 µM) was 0.81% [middle of 12 runs]; the viability, T/C (compound 10 µM) was 0.24% [middle of 12 runs]. Besides, the IC50 (compound alone, run of 09/18/2023) is 266 nM [middle of 12 runs].

As for `COc1ccc([C@@H](O)c2cc(-c3ncnc4cc(N5CCOCC5)ccc34)c(F)cc2Cl)nn1`, the viability, T/C runs as follows: (compound 0.0316 µM) 87.2% and 87.1%; (compound 0.1 µM) 104% and 94.9%; (compound 0.316 µM) 87.7% and 98.9%; (compound 1 µM) 113% and 98.2%; (compound 3.16 µM) 85.8% and 117%; (compound 10 µM) 82.8% and 89.9%. Besides, the IC50 (curve of compound) is more than 10 µM.

In the case of `COc1cccc2c1C(=O)c1c(O)c3c(c(O)c1C2=O)CC(O)(C(=O)CO)CC3OC1CC(N)C(O)C(C)O1` (centres undefined), the viability, T/C is, setting by setting: (compound 0.0316 µM) 92.5% and 100%; (compound 0.1 µM) 97.2% and 86%; (compound 0.316 µM) 91.5% and 102%; (compound 1 µM) 63.7% and 75.1%; (compound 3.16 µM) 38.8% and 41.3%; (compound 10 µM) 13.7% and 21.8%. Moreover, the IC50 (curve of compound) is 1.91 µM and 2.33 µM.

`Nc1ccn(C2OC(CO)C(O)C2(F)F)c(=O)n1` (centres undefined): the viability, T/C was 15.9% and 15.4% (compound 0.0316 µM); 17.1% and 18.3% (compound 0.1 µM); 15.5% and 15.6% (compound 0.316 µM); 15.6% and 16.5% (compound 1 µM); 15.1% and 13.7% (compound 3.16 µM); 13.5% and 14.2% (compound 10 µM). Also, for the setting “curve of compound”, the IC50 is less than 0.0316 µM.

For `O=C(c1cc(Cc2n[nH]c(=O)c3ccccc23)ccc1F)N1CCN(C(=O)C2CC2)CC1`, the viability, T/C runs as follows: (compound 0.0316 µM) 81.9% and 98.5%; (compound 0.1 µM) 91.4% and 88.5%; (compound 0.316 µM) 85.5% and 102%; (compound 1 µM) 93% and 118%; (compound 3.16 µM) 96.8% and 107%; (compound 10 µM) 83.2% and 100%. Moreover, the IC50 (curve of compound) was more than 10 µM.

For `O=c1[nH]cc(F)c(=O)[nH]1`, the viability, T/C by setting is: (compound 0.0316 µM) 102% and 101%; (compound 0.1 µM) 95.8% and 97.9%; (compound 0.316 µM) 86.8% and 93.4%; (compound 1 µM) 104% and 115%; (compound 3.16 µM) 38% and 60.7%; (compound 10 µM) 26.7% and 35.1%. Further, the IC50 (curve of compound) was 2.51 µM and 5.11 µM.

For the origin of these results see PubChem BioAssay AID2060606 (Molecular Pharmacology Branch, DTP, NCI, 2025).
